Laboratory results as given in paper PMC9604775, “Bioactive Peptides from Skipjack Tuna Cardiac Arterial Bulbs: Preparation, Identification, Antioxidant Activity, and Stability against Thermal, pH, and Simulated Gastrointestinal Digestion Treatments” (Marine Drugs, 2022).
Like-named read-outs stand apart in the source and are kept apart here. Where a SMILES comes first, the peptide text is derived from it. Where no end group is shown, it is not given here.

Assays:
H2O2-damaged HepG2 cells = assay type: cell-based
Experimental: The assay was carried out according to the method described by Hu et al., and the H2O2 concentration of 300 µM was applied to establish the oxidative damage model of HepG2 cells. Briefly, the HepG2 cells with density of 1 × 10^5 cells/well were incubated in a 96-well plate for 24 h. The supernatant in the 96-well plate was aspirated and 100 µL of peptide samples (50.0, 100.0, or 200.0 µM, respectively) were added into the protection groups respectively for incubating 8 h. After removing peptides, H2O2 with the final concentration of 300 µM was joined in the protection and model groups. After incubating for 24 h, the wells were rinsed twice with PBS and the MTT with the final concentration of 0.5 mg/mL was added into. After incubating for 4 h, the formazan crystals formed by active cells were soluble in 150 µL of DMSO and OD570 nm of the solution was determined. Finally, the cell viability was calculated using the equation: Cell viability = (ODsample/ODcontrol) × 100%(2)

[1] = Stability to simulated gastrointestinal digestion (DPPH· scavenging activity); assay type: in vitro ADME; conditions: two-stage model: pepsin 120 min then trypsin 120 min; 0 to 240 min; peptide 2.0 mg/mL; read-out DPPH· scavenging activity
Experimental: The stability of TCP1 to TCP11 from tuna cardiac arterial bulbs was determined according to the previous method with a slight modification. The DPPH· scavenging activity (%) of TCP1 to TCP11 at 2.0 mg/mL were measured at the set conditions to evaluate their stability.
The thermostability of TCP1 to TCP11 at 20, 40, 60, 80, or 100 °C for 60 min was analyzed in water bath. The influences of pH values of 3, 5, 7, 9, or 11 were employed to estimate the acid and alkali stability properties of TCP1 to TCP11 at 25 °C, and the detecting time was set to 60, 120, and 180 min, respectively. The influence of simulate GI digestion on the stability of TCP1 to TCP11 was evaluated by the two-stage digestion model. In short, APs (TCP1 to TCP11) were separately treated with pepsin for 120 min and trypsin for 120 min.

[2] = peptide 200 μmol/L, 8 h pre-incubation, then 300 µM H2O2 for 24 h, MTT, model group 50.64 ± 2.43%, mean ± SD, n = 3

Compound | viability of H2O2-damaged HepG2 cells (H2O2-damaged HepG2 cells; [2]) [%] | viability of H2O2-damaged HepG2 cells (H2O2-damaged HepG2 cells; 8 h, 200 μmol/L) [%] | other results
CC(=O)N[C@@H](CS)C(=O)O [N-Acetyl-L-Cysteine (NAC), N-Acetyl-L-Cysteine] | 90.06 ± 3.16 |  | 
NCCCC[C@H](NC(=O)[C@H](CCCCN)NC(=O)[C@@H]1CCCN1)C(=O)O [TCP3, Pro-Lys-Lys] (H-Pro-Lys-Lys-OH) |  | 81.26 ± 1.86 | 
GEQSN [TCP2, Gly-Glu-Gln-Ser-Asn] |  |  | Declined percentage of DPPH· scavenging activity after simulated GI digestion [1]: 4.49%
GPGLM [TCP9, Gly-Pro-Gly-Leu-Met] |  | 78.54 ± 3.06 | 
YEGGD [TCP6, Tyr-Glu-Gly-Gly-Asp] | 74.68 ± 1.69 |  | 
